In brackets after ≈: the same amount, converted by molar mass. Like-named read-outs stand apart in the source and are kept apart here.

This passage reports MIC and EC50 results from patent US10919916B2, “Boron-containing small molecules” (Bill & Melinda Gates Foundation, priority 2016, dated 2021).

Common to all, as to format: cell-based
Assay [1] has as its system Staphylococcus aureus, MRSA (ATCC 33591). Nature of the assay: Antibacterial MIC assay (microbroth dilution, CLSI). Conditions: read-out: MIC Staphylococcus aureus, MRSA (ATCC 33591). In a few lines:
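Microbroth dilution per CLSI M07-A10/M100-S25 in cation-adjusted Mueller-Hinton broth, with 3% lysed horse blood added for S. pneumoniae. Inoculum from a 0.5 McFarland direct colony suspension, diluted to 5×10^5 CFU/mL in the well. Compounds were 2-fold serially diluted; MIC read against a growth control.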
For orientation: Broth dilution looks for growth in wells or tubes with falling amounts of substance.

The subject of assay [2] is Streptococcus pneumoniae (ATCC 49619). Described as above. An outline of the steps: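 CLSI broth microdilution: 2-fold compound dilutions in cation-adjusted Mueller-Hinton broth supplemented with 3% lysed horse blood for S. pneumoniae, inoculum 5×10^5 CFU/mL from a 0.5 McFarland direct colony suspension, with growth control.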
Assay [3] has as its system Wolbachia pipientis in C6/36 cell line. The assay can be described thus: Anti-Wolbachia high-content assay. To be noted: read-out: EC50 Wolbachia pipientis in C6/36 cell line. An outline of the steps: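 Wolbachia-infected C6/36 cells stained 15 minutes, then medium replaced and five fields per well imaged confocally at 60× with fluorescein filters. Each intact cell scored on cytoplasmic texture complexity.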

The mark [4] stands for this setting: microbroth dilution, cation-adjusted Mueller-Hinton broth, 35° C. for 16-20 hours.
Where [5] appears, read: ATCC49619, microbroth dilution, 3% lysed horse blood, 35° C. for 16-20 hours, read-out: MIC Streptococcus pneumoniae (ATCC 49619).
Setting [6] is: C6/36 (wAlbB) cells, 7 days at 26° C., 50% reduction of Wolbachia.

For orientation: MIC means the smallest concentration in the dilution series that meets the test's criterion for growth inhibition. For `C=C[C@]1(C)C[C@@H](OC(=O)COc2ccc3c(c2)B(O)NN=C3)[C@]2(C)[C@H](C)CC[C@]3(C[C@H](O)C(=O)[C@H]32)[C@@H](C)[C@@H]1O` [Compound 70, (2S,3aR,4R,5R,7S,8S,9R,9aS,12R)-2,8-dihydroxy-4,7,9,12-tetramethyl-3-oxo-7-vinyldecahydro-4,9a-propanocyclopenta[8]annulen-5-yl 2-((1-hydroxy-1,2-dihydrobenzo[d][1,2,3]diazaborinin-7-yl)oxy)acetate], the values for the minimum inhibitory concentration (MIC) in assay [1] (setting [4]) and in assay [2] (setting [5]) were 0.5 to 2 µg/mL (≈ 0.929 to 3.71 µM) and less than 0.25 µg/mL, respectively. For the same compound, the EC50 in assay [3] (setting [6]) amounted to 0.012 µM.
As for `C=C[C@]1(C)C[C@@H](OC(=O)COc2ccc3c(c2)B(O)OC3CNS(C)(=O)=O)[C@]2(C)[C@H](C)CC[C@]3(CCC(=O)[C@H]32)[C@@H](C)[C@@H]1O` (stereo partly drawn) [Compound 23, (3aR,4R,5R,7S,8S,9R,9aS,12R)-8-hydroxy-4,7,9,12-tetramethyl-3-oxo-7-vinyldecahydro-4,9a-propanocyclopenta[8]annulen-5-yl 2-((1-hydroxy-3-(methylsulfonamidomethyl)-1,3-dihydrobenzo[c][1,2]oxaborol-6-yl)oxy)acetate], the MIC in assay [1] (setting [4]) and in assay [2] (setting [5]) was 0.5 to 2 µg/mL (≈ 0.81 to 3.24 µM) throughout. Also, in assay [3] (setting [6]), the EC50 came to 0.613 µM.
As for `C=C[C@]1(C)C[C@@H](OC(=O)COc2ccc3c(c2)B(O)ON=C3)[C@]2(C)[C@H](C)CC[C@]3(C[C@H](F)C(=O)[C@H]32)[C@@H](C)[C@@H]1O` [Compound 99, (2S,3aR,4R,5R,7S,8S,9R,9aS,12R)-2-fluoro-8-hydroxy-4,7,9,12-tetramethyl-3-oxo-7-vinyldecahydro-4,9a-propanocyclopenta[8]annulen-5-yl 2-((1-hydroxy-1H-benzo[d][1,2,6]oxazaborinin-7-yl)oxy)acetate], the minimal inhibitory concentration (MIC) in assay [1] (setting [4]) and in assay [2] (setting [5]) was 0.5 to 2 µg/mL (≈ 0.923 to 3.69 µM) in each case. Besides, in assay [3] (setting [6]), the EC50 came to 0.013 µM.
For the compound `C=C[C@]1(C)C[C@@H](OC(=O)COc2ccc3c(c2)B(O)N(C(=O)OC(C)(C)C)N=C3)[C@]2(C)[C@H](C)CC[C@]3(C[C@H](F)C(=O)[C@H]32)[C@@H](C)[C@@H]1O` [Compound 73, tert-butyl 7-(2-(((2S,3aR,4R,5R,7S,8S,9R,9aS,12R)-2-fluoro-8-hydroxy-4,7,9,12-tetramethyl-3-oxo-7-vinyldecahydro-4,9a-propanocyclopenta[8]annulen-5-yl)oxy)-2-oxoethoxy)-1-hydroxybenzo[d][1,2,3]diazaborinine-2(1H)-carboxylate], the MIC in assay [1] (setting [4]) and in assay [2] (setting [5]) was less than 0.25 µg/mL in each case. The EC50 in assay [3] (setting [6]) was 0.001 µM.
Turning to `C=C[C@]1(C)C[C@@H](OC(=O)COc2ccc3c(c2)B(O)N(C(=O)OC)N=C3)[C@]2(C)[C@H](C)CC[C@]3(C[C@H](F)C(=O)[C@H]32)[C@@H](C)[C@@H]1O` [Compound 92, Methyl 7-(2-(((2S,3aR,4R,5R,7S,8S,9R,9aS,12R)-2-fluoro-8-hydroxy-4,7,9,12-tetramethyl-3-oxo-7-vinyldecahydro-4,9a-propanocyclopenta[8]annulen-5-yl)oxy)-2-oxoethoxy)-1-hydroxybenzo[d][1,2,3]diazaborinine-2(1H)-carboxylate], the minimum inhibitory concentration (MIC) in assay [1] (setting [4]) is less than 0.25 µg/mL; in assay [2] (setting [5]) it was 0.5 to 2 µg/mL (≈ 0.835 to 3.34 µM). For the same compound, the EC50 in assay [3] (setting [6]) was 0.003 µM.
Regarding `C=C[C@]1(C)C[C@@H](OC(=O)COc2cc3c(cc2F)COB3O)[C@]2(C)[C@H](C)CC[C@]3(C[C@H](F)C(=O)[C@H]32)[C@@H](C)[C@@H]1O` [Compound 40, (2S,3aR,4R,5R,7S,8S,9R,9aS,12R)-2-fluoro-8-hydroxy-4,7,9,12-tetramethyl-3-oxo-7-vinyldecahydro-4,9a-propanocyclopenta[8]annulen-5-yl 2-((5-fluoro-1-hydroxy-1,3-dihydrobenzo[c][1,2]oxaborol-6-yl)oxy)acetate], the minimum inhibitory concentration (MIC) in assay [1] (setting [4]) is less than 0.25 µg/mL; in assay [2] (setting [5]), 0.5 to 2 µg/mL (≈ 0.915 to 3.66 µM). The EC50 in assay [3] (setting [6]) stood at 0.018 µM.
As to `C=C[C@]1(C)C[C@@H](OC(=O)CNc2cnc3c(c2)B(O)OC3)[C@]2(C)[C@H](C)CC[C@]3(CCC(=O)[C@H]32)[C@@H](C)[C@@H]1O` [Compound 102, (3aR,4R,5R,7S,8S,9R,9aS,12R)-8-hydroxy-4,7,9,12-tetramethyl-3-oxo-7-vinyldecahydro-4,9a-propanocyclopenta[8]annulen-5-yl (1-hydroxy-1,3-dihydro-[1,2]oxaborolo[4,3-b]pyridin-6-yl)glycinate], the minimal inhibitory concentration (MIC) in assay [1] (setting [4]) and in assay [2] (setting [5]) was more than 64 µg/mL throughout. In assay [3] (setting [6]), the EC50 was more than 1 µM.
Regarding `C=C[C@]1(C)C[C@@H](OC(=O)COc2ccc3c(c2)B(O)OC3)[C@]2(C)[C@H](C)CC[C@]3(C[C@H](F)C(=O)[C@H]32)[C@@H](C)[C@@H]1O` [Compound 38, (2S,3aR,4R,5R,7S,8S,9R,9aS,12R)-2-fluoro-8-hydroxy-4,7,9,12-tetramethyl-3-oxo-7-vinyldecahydro-4,9a-propanocyclopenta[8]annulen-5-yl 2-((1-hydroxy-1,3-dihydrobenzo[c][1,2]oxaborol-6-yl)oxy)acetate], the MIC in assay [1] (setting [4]) was less than 0.25 µg/mL; in assay [2] (setting [5]), 0.5 to 2 µg/mL (≈ 0.946 to 3.78 µM). In addition, in assay [3] (setting [6]), the EC50 is 0.009 µM.
Regarding `C=C[C@]1(C)C[C@@H](OC(=O)COc2ccc3c(c2)B(O)OC3CC(=O)O)[C@]2(C)[C@H](C)CC[C@]3(CCC(=O)[C@H]32)[C@@H](C)[C@@H]1O` (stereo partly drawn) [Compound 25, 2-(1-hydroxy-6-(2-(((3aR,4R,5R,7S,8S,9R,9aS,12R)-8-hydroxy-4,7,9,12-tetramethyl-3-oxo-7-vinyldecahydro-4,9a-propanocyclopenta[8]annulen-5-yl)oxy)-2-oxoethoxy)-1,3-dihydrobenzo[c][1,2]oxaborol-3-yl)acetic acid], the MIC in assay [1] (setting [4]) and in assay [2] (setting [5]) was 0.5 to 2 µg/mL (≈ 0.88 to 3.52 µM) throughout. Also, the EC50 in assay [3] (setting [6]) is more than 1 µM.
With `C=C[C@]1(C)C[C@@H](OC(=O)COc2cc3c(c(C4CCN(C(=O)OC(C)(C)C)CC4)c2)COB3O)[C@]2(C)[C@H](C)CC[C@]3(CCC(=O)[C@H]32)[C@@H](C)[C@@H]1O` [Compound 17, tert-butyl 4-(1-hydroxy-6-(2-(((3aR,4R,5R,7S,8S,9R,9aS,12R)-8-hydroxy-4,7,9,12-tetramethyl-3-oxo-7-vinyldecahydro-4,9a-propanocyclopenta[8]annulen-5-yl)oxy)-2-oxoethoxy)-1,3-dihydrobenzo[c][1,2]oxaborol-4-yl)piperidine-1-carboxylate], the figures for the MIC in assay [1] (setting [4]) and in assay [2] (setting [5]) were 0.5 to 2 µg/mL (≈ 0.721 to 2.88 µM) and less than 0.25 µg/mL, respectively. In addition, the EC50 in assay [3] (setting [6]) is 0.623 µM.
Taken in the same sequence, the figures for `C=C[C@]1(C)C[C@@H](OC(=O)COc2ccc(C3=CCOB3O)cc2)[C@]2(C)[C@H](C)CC[C@]3(CCC(=O)[C@H]32)[C@@H](C)[C@@H]1O` [Compound 103, (3aR,4R,5R,7S,8S,9R,9aS,12R)-8-hydroxy-4,7,9,12-tetramethyl-3-oxo-7-vinyldecahydro-4,9a-propanocyclopenta[8]annulen-5-yl 2-(4-(2-hydroxy-2,5-dihydro-1,2-oxaborol-3-yl)phenoxy)acetate] were less than 0.25 µg/mL, less than 0.25 µg/mL and 0.419 µM.
Consider `C=C[C@]1(C)C[C@@H](OC(=O)COc2ccc3c(c2)B(O)ON=C3)[C@]2(C)[C@H](C)CC[C@]3(C[C@H](O)C(=O)[C@H]32)[C@@H](C)[C@@H]1O` [Compound 98, (2S,3aR,4R,5R,7S,8S,9R,9aS,12R)-2,8-dihydroxy-4,7,9,12-tetramethyl-3-oxo-7-vinyldecahydro-4,9a-propanocyclopenta[8]annulen-5-yl 2-((1-hydroxy-1H-benzo[d][1,2,6]oxazaborinin-7-yl)oxy)acetate], for which the MIC in assay [1] (setting [4]) and in assay [2] (setting [5]) was 0.5 to 2 µg/mL (≈ 0.927 to 3.71 µM) throughout. Also, in assay [3] (setting [6]), the EC50 turned out to be 0.063 µM.
In the case of `C=C[C@]1(C)C[C@@H](OC(=O)COc2ccc3c(c2Cl)B(O)OC3CNC(=O)OC(C)(C)C)[C@]2(C)[C@H](C)CC[C@]3(CCC(=O)[C@H]32)[C@@H](C)[C@@H]1O` (stereo partly drawn) [Compound 30, (3aR,4R,5R,7S,8S,9R,9aS,12R)-8-hydroxy-4,7,9,12-tetramethyl-3-oxo-7-vinyldecahydro-4,9a-propanocyclopenta[8]annulen-5-yl 2-((3-(((tert-butoxycarbonyl)amino)methyl)-7-chloro-1-hydroxy-1,3-dihydrobenzo[c][1,2]oxaborol-6-yl)oxy)acetate], the MIC in assay [1] fell in the range of 0.5 to 2 µg/mL (≈ 0.742 to 2.97 µM); in assay [2] (ATCC49619, read-out: MIC Streptococcus pneumoniae (ATCC 49619)), 4 to 32 µg/mL (≈ 5.93 to 47.5 µM). Moreover, the EC50 in assay [3] (C6/36, […]) is more than 1 µM.
